Laboratory results from PubChem BioAssay AID977613 (Broad Institute, 2014).
Activity calls are given as the source filed them. How the calls were made is not given here.

Test system: Broad 7084-01 inhibitor HTS, set 2
Assay: inhibitors in Broad screen 7084-01, set 2 (AID 977613);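 further: host cells are infected with parasite promastigotes that become internalized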

O=C(C[C@H]1CC[C@@H]2[C@H](COC[C@H](O)CN2Cc2ccc(Cl)cc2)O1)NCc1ccccc1Cl
active concentration: > 10 µM (inactive)

O=C(C[C@H]1CC[C@H]2[C@@H](COC[C@H](O)CN2S(=O)(=O)c2cccc(Cl)c2)O1)Nc1ccc(-c2ccccc2)cc1
active concentration: > 10 µM (inactive)

O=C(CC1CC1)N1CC(=O)N2[C@H](CO)[C@@H](c3ccc(/C=C/c4ccccc4)cc3)[C@@H]2C1
active concentration: > 10 µM (inactive)

O=C(C[C@@H]1CC[C@H]2[C@@H](COC[C@H](O)CN2Cc2nccs2)O1)NCc1ccccc1
active concentration: > 10 µM (inactive)

CC=Cc1ccc2n(c1=O)C[C@@H]1[C@@H](CO)[C@H](C(=O)NC3CCC3)[C@H]2N1S(=O)(=O)c1cn(C)cn1 (mixture of isomers)
active concentration: > 10 µM (inactive)

COc1ccc(C#Cc2ccc([C@@H]3[C@@H](CO)N4C(=O)CN(C(=O)c5ccc(F)cc5)C[C@@H]34)cc2)cc1
active concentration: > 10 µM (inactive)

COC(=O)c1ccc(CN2CC(=O)N3[C@@H](CO)[C@H](c4ccc(-c5cccnc5)cc4)[C@@H]3C2)cc1
active concentration: > 10 µM (inactive)

O=C(c1ccccc1F)N1CC(=O)N2[C@H](CO)[C@@H](c3ccc(C#Cc4ccccc4)cc3)[C@H]2C1
active concentration: > 10 µM (inactive)

COCC(=O)N1[C@@H](C#N)[C@@H](c2ccccc2-c2cccc(C)c2)[C@@H]1CO
active concentration: > 10 µM (inactive)

COCC(=O)N1CC2(C1)[C@H](c1ccc(-c3ccc(C)cc3)cc1)[C@@H](CO)N2C(C)=O
active concentration: > 10 µM (inactive)

COc1ccccc1-c1ccccc1[C@H]1[C@@H](CO)N(C(=O)C2CCOCC2)[C@H]1C#N
active concentration: > 10 µM (inactive)

CN1C(=O)c2cc(NC(=O)c3cnccn3)ccc2OC[C@@H]2O[C@@H](CC(=O)NCC3CCCCC3)CC[C@H]21
active concentration: > 10 µM (inactive)

CC(=O)N1CC[C@@H]2[C@@H](CO)N(C)c3ccc(-c4ccc(C#N)cc4)cc3[C@@H]21
active concentration: > 10 µM (inactive)

CCCC#Cc1ccc([C@@H]2[C@@H](CO)N3C(=O)CN(C(=O)CN4CCOCC4)C[C@@H]23)cc1
active concentration: > 10 µM (inactive)

O=C(NC1CCCCC1)N1CC2(C1)[C@H](c1ccccc1)[C@H](CO)N2CC1CCCC1
active concentration: > 10 µM (inactive)

COc1ccccc1S(=O)(=O)N1CC[C@H]2[C@H](CO)Nc3ccc(-c4ccc(C#N)cc4)cc3[C@H]21
active concentration: > 10 µM (inactive)

CS(=O)(=O)N1C[C@@H](O)COC[C@@H]2O[C@H](CC(=O)NCc3ccc(-c4ccccc4)cc3)CC[C@H]21
active concentration: > 10 µM (inactive)

O=C(c1ccccn1)N1C[C@H]2[C@@H](c3ccccc31)[C@@H](CO)N2C(=O)Nc1ccccc1F
active concentration: > 10 µM (inactive)

O=C(C[C@@H]1CC[C@@H]2[C@H](COC[C@H](O)CN2Cc2ccccc2)O1)NCCc1ccccc1
active concentration: > 10 µM (inactive)

Cc1cccc(S(=O)(=O)N2CC[C@H]3[C@@H](CO)N(C)c4ccc(-c5ccccc5F)cc4[C@H]32)c1
active concentration: > 10 µM (inactive)

O=C(c1ccccn1)N1CC(=O)N2[C@H](CO)[C@H](c3ccc(C4=CCCC4)cc3)[C@@H]2C1
active concentration: > 10 µM (inactive)

O=C(NC1CCCC1)N1CCCCN2[C@H](CO)[C@H](c3ccc(-c4cccnc4)cc3)[C@H]2C1
active concentration: > 10 µM (inactive)

O=C(c1ccncc1)N1C[C@@H]2[C@H](c3ccccc31)[C@H](CO)N2Cc1ccccc1F
active concentration: > 10 µM (inactive)

O=S(=O)(c1ccc(F)cc1)N1C[C@H]2[C@@H](c3ccccc31)[C@@H](CO)N2Cc1ccccc1Cl
active concentration: > 10 µM (inactive)

O=C(c1cccc(F)c1)N1C[C@@H]2[C@H](c3ccccc31)[C@@H](CO)N2C(=O)C1CCOCC1
active concentration: > 10 µM (inactive)

COCC(=O)N1[C@@H]2CNc3ccccc3[C@@H]2[C@@H]1CO
active concentration: > 10 µM (inactive)

O=S(=O)(c1ccccc1)N1CCCCN2[C@H](CO)[C@H](c3ccc(C#CC4CCCC4)cc3)[C@@H]2C1
active concentration: > 10 µM (inactive)
